pKi: −log10 of the molar value. Where a name gives a salt, the structure may show the parent alone.

T1 sequence (P29274 whole entry): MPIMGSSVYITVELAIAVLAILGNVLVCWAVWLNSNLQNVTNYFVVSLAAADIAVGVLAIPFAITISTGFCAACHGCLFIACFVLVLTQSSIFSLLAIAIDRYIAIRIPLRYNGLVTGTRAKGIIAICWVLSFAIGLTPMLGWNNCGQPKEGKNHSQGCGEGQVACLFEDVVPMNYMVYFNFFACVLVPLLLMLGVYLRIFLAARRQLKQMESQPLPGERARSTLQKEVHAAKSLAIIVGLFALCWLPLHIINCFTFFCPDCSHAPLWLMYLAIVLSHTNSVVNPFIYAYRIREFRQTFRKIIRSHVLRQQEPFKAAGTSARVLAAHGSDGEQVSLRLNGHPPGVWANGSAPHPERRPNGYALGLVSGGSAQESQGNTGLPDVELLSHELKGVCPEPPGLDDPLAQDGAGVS

One experiment has as its target T1, human adenosine A2A receptor (Homo sapiens, UniProt P29274).
T1 construct: expressed in transfected cells; host or cells: CHO cells, Semliki Forest virus expression system; washed membrane pellet used
The experiment is described as follows: [3H]-SCH-58261 binding assay at the human adenosine A2A receptor.
Conditions: not given
Here is the method: Human Adenosine A2A Receptor
The human adenosine A2A receptor was recombinantly expressed in chinese hamster ovary (CHO) cells using the semliki forest virus expression system. Cells were harvested, washed twice by centrifugation, homogenised and again washed by centrifugation. The final washed membrane pellet was suspended in a Tris (50 mM) buffer containing 120 mM NaCl, 5 mM KCl, 2 mM CaCl2 and 10 mM MgCl2 (pH 7.4) (buffer A). The [^3H]-SCH-58261 (Dionisotti et al., 1997, Br J Pharmacol 121, 353; 1 nM) binding assay was carried out in 96-well plates in the presence of 2.5 μg of membrane protein, 0.5 mg of Ysi-poly-1-lysine SPA beads and 0.1 U adenosine deaminase in a final volume of 200 μl of buffer A. Non-specific binding was defined using xanthine amine congener (XAC; 2 μM). Compounds were tested at 10 concentrations from 10 μM-0.3 nM. All assays were conducted in duplicate and repeated at least two times. Assay plates were incubated for 1 hour at room temperature before centrifugation and then bound ligand determined using a Packard Topcount scintillation counter. IC50 values were calculated using a non-linear curve fitting program and Ki values calculated using the Cheng-Prussoff equation.
Broadly, the pKi is the negative decadic logarithm of the Ki, by convention in mol/L. A high value points to a low Ki. With `COc1ccc(N2CCOCC2)c2sc(NC(=O)N3CCC(=O)CC3)nc12` [Example 342, 4-Oxo-piperidine-1-carboxylic acid (4-methoxy-7-morpholin-4-yl-benzothiazol-2-yl)-amide], the pKi is 8.50.

The same experiment, now with this note: read-out: pKi value (converted).
In the case of `COCCNCc1ccc(C(=O)Nc2nc3c(OC)ccc(-c4ccccc4)c3s2)cc1` [Example 91, 4-[(2-Methoxy-ethylamino)-methyl]-N-(4-methoxy-7-phenyl-benzothiazol-2-yl)-benzamide hydrochloride salt (1:1)], the Ki is 1.58 nM.
On the same count and under the same terms, with `COc1ccc(-c2ccccc2)c2sc(NC(=O)c3ccc(CNCc4ccncc4)cc3)nc12` [Example 96, N-(4-Methoxy-7-phenyl-benzothiazol-2-yl)-4-{[(pyridin-4-ylmethyl)-amino]-methyl}-benzamide hydrochloride salt (1:2)] the figure was 1.58 nM; with `COc1ccc(N2CCOCC2)c2sc(NC(=O)c3ccc(F)cc3)nc12` [Example 275, 4-Fluoro-N-(4-methoxy-7-morpholin-4-yl-benzothiazol-2-yl)-benzamide], 2 nM.
Same read-out and setting: in the case of `COc1ccc(N2CCOCC2)c2sc(NC(=O)c3ccc(Cn4ccnc4C)cc3)nc12` [Example 308, N-(4-Methoxy-7-morpholin-4-yl-benzothiazol-2-yl)-4-(2-methyl-imidazol-1-yl-methyl)-benzamide] it was 0.794 nM; in that of `COC(=O)Nc1nc2c(OC)ccc(-c3csc(-c4ccc(C)nc4)n3)c2s1` [Example 201, {4-Methoxy-7-[2-(6-methyl-pyridin-3-yl)-thiazol-4-yl]-benzothiazol-2-yl}-carbamic acid methyl ester], 2.51 nM.
Same read-out and setting: with `CNCc1cc(C(=O)Nc2nc3c(OC)ccc(N4CCOCC4)c3s2)ccc1Cl` [Example 280, 4-Chloro-N-(4-methoxy-7-morpholin-4-yl-benzothiazol-2-yl)-3-methylaminomethyl-benzamide] the figure was 2 nM; with `COc1ccc(-c2ccccc2)c2sc(NC(=O)N3CCOCC3)nc12` [Example 157, Morpholine-4-carboxylic acid (4-methoxy-7-phenyl-benzothiazol-2-yl)-amide], 1.26 nM; with `COc1ccc(-c2ccccc2)c2sc(NC(=O)c3ccc(CO)cc3)nc12` [Example 17, 4-Hydroxymethyl-N-(4-methoxy-7-phenyl-benzothiazol-2-yl)-benzamide], 0.501 nM.
With `COc1ccc(N2CCSCC2)c2sc(NC(=O)c3ccccc3)nc12` [Example 317, N-(4-Methoxy-7-thiomorpholin-4-yl-benzothiazol-2-yl)-benzamide], the Ki was 2.51 nM.
Regarding `COc1ccc(-c2ccccc2)c2sc(NC(=O)c3ccc(Cn4ccnc4)cc3)nc12` [Example 100, 4-Imidazol-1-ylmethyl-N-(4-methoxy-7-phenyl-benzothiazol-2-yl)-benzamide hydrochloride salt (1:1)], the Ki is 0.501 nM.
On the same count and under the same terms, in the case of `COCCNCc1cc(C(=O)Nc2nc3c(OC)ccc(N4CCOCC4)c3s2)ccc1Cl` [Example 282, 4-Chloro-3-[(2-methoxy-ethylamino)-methyl]-N-(4-methoxy-7-morpholin-4-yl-benzothiazol-2-yl)-benzamide] it was 2.51 nM.
In the case of `COc1ccc(N2CCOCC2)c2sc(NC(=O)C3CCN(C(C)=O)CC3)nc12` [Example 327, 1-Acetyl-piperidine-4-carboxylic acid (4-methoxy-7-morpholin-4-yl-benzothiazol-2-yl)-amide], the Ki is 3.16 nM.
As for `COCCNCc1cccc(C(=O)Nc2nc3c(OC)ccc(N4CCOCC4)c3s2)c1` [Example 286], the Ki is 1.58 nM.
With `COc1ccc(N2CCOCC2)c2sc(NC(=O)c3ccc(C(F)(F)F)cc3)nc12` [Example 271, N-(4-Methoxy-7-morpholin-4-yl-benzothiazol-2-yl)-4-trifluoromethyl-benzamide], the Ki was 2.51 nM.
In the case of `COc1ccc(-c2cccc(N)c2)c2sc(NC(=O)c3ccc(C)s3)nc12` [Example 62, 5-Methyl-thiophene-2-carboxylic acid [7-(3-amino-phenyl)-4-methoxy-benzothiazol-2-yl]-amide], the Ki is 0.794 nM.

The record behind these values is US7317007B2, “Benzothiazole derivatives with activity as adenosine receptor ligands” (Hoffmann-La Roche Inc., priority 2000, dated 2008).
